Assay results: patent US20240050436A1, “COMPOSITIONS AND METHODS USED FOR RETINAL ISCHEMIA OR DIABETES” (The United States GOVERNMENT As Represented By The …, priority 2021, published 2024)
Entries after “also recorded” stand apart in the source; their conditions may differ.

Key:
p75^NTR [1] = molecular target: T1, p75^NTR (Mus musculus, UniProt Q9Z0W1); assay: Visual acuity test (cue version of Morris water maze) post retinal I/R; type: in vivo; conditions: WT mice
T1 construct: Interventional treatment with the p75^NTR modulator LM11A-31 (50 mg/Kg, po, QOD) for 12 weeks; from tissue; host or cells: living STZ-diabetic mice (kidney, urine, blood, body weight)
T1 sequence (Q9Z0W1 32-427): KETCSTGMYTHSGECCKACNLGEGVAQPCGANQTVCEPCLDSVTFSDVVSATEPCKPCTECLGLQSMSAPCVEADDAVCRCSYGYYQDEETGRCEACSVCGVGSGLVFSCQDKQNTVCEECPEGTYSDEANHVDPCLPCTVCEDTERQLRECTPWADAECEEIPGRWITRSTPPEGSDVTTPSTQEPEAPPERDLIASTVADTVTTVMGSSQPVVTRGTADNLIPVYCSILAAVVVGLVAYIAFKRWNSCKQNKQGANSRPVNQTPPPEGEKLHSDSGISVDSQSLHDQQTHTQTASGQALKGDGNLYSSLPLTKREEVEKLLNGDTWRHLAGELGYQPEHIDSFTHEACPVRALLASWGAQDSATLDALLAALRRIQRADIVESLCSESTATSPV
Experimental: For surgeries, mice were anesthetized with intraperitoneal ketamine (50 mg/kg; Hospira, Inc., Lake Forest, IL, USA) and xylazine (10 mg/kg; Akorn, Decatur, IL, USA). Retinal ischemia/reperfusion (I/R) was performed as described previously in Coucha, M. et al. Modulating Expression of Thioredoxin Interacting Protein (TXNIP) Prevents Secondary Damage and Preserves Visual Function in a Mouse Model of Ischemia/Reperfusion. Int. J. Mol. Sci. 2019, 20. Briefly, pupils were dilated with 1% Atropine Sulfate (Akorn, Inc., Lake Forest, IL, USA). The anterior chamber was cannulated with a 32 gauge needle attached to a line from a saline reservoir at a height calibrated to yield 120 mmHg. The intraocular pressure (IOP) was elevated to 120 mmHg for 45-60 min. I/R injury and choroidal nonperfusion was evident by whitening of the anterior segment of the globe and blanching of the episcleral veins. During infusion, topical anesthesia (0.5% tetracaine HCL, Bausch & Lomb, NJ, USA) was applied to the cornea. After ischemia, the needle was immediately withdrawn, allowing for rapid reperfusion, IOP was normalized, and reflow of the retinal vasculature was confirmed by observation of the episcleral veins. […]
Visual acuity was assessed behaviorally by training and testing mice on the “cue” version of the Morris water maze task. […]

p75^NTR [2] = molecular target: T1, p75^NTR; assay: Interventional treatment of STZ-diabetic mice (16-weeks diabetes): kidney and systemic readouts; type: in vivo; conditions: 50 mg/Kg, po, QOD, 12 weeks
p75^NTR on MSCs = molecular target: T2, p75^NTR on MSCs (Mus musculus, UniProt Q9Z0W1); assay: MSCs secretome: Western blotting of MSCs conditioned medium (CM); type: cell-based; conditions: Western blot of CM vs control CM; LM11A-31: 200 nM, 12 h; or p75NTR siRNA silencing
T2 construct: endogenous in cells; host or cells: GFP-labeled mouse mesenchymal stem cells (passages 5-9)
T2 sequence (Q9Z0W1 32-427): T1 sequence (Q9Z0W1 32-427)
Experimental: (§1) GFP-labeled mouse MSCs were obtained as a kind gift from Dr. William D. Hill (MUSC, Charleston, SC) and used between passages 5-9. MSCs cells were cultured in high glucose DMEM (4.5 g/L D-glucose, Thermo-Fisher Grand Island, NY, USA) supplemented with 10% FBS and 1% penicillin/streptomycin at 37° C. and 5% CO2. Knocking down p75NTR expression was performed according to manufacturer's instructions (Santa Cruz Biotechnology Inc., Dallas, TX, USA). Briefly, MSCs were shifted to antibiotic-free medium over night when 60-80% confluent. Cells were transfected with Si-RNA against p75NTR receptor (sc-37268) or scrambled (sc-37007) with the aid of lipofectamine transfection reagent (sc-29528) for 6 h. DMEM medium containing 2× of FBS and antibiotic was added on top of pure transfection medium for an extra 12 h. Next, transfection medium was removed and cells were allowed to recover in 1×DMEM medium for 6 h. For in vivo studies, cells were collected in sterile PBS (50,000 cells/μL) for intravitreal injection 48 h after I/R. For additional set of experiments, MSCs were treated with the p75NTR modulator (LM11A-31, 200 nM). Confluent MSCs (80% confluent) were treated with LM11A-31 or its vehicle for 12 h. Then, condition media were collected as well as cell lysates using mirVANA™ PARIS™ Kit (Ambion Inc., Austin, TX, USA), according to manufacturer's instructions.

HREs [3] = assay: Cell migration assay (wounded HREs, CM of treated MSCs); type: cell-based, human; conditions: 12 h of treatment with CM of modulated MSCs
Experimental: HREs were grown to confluence and then were wound with a single sterile cell scraper of constant diameter. Cells were divided into three groups, treated with regular media without FBS, and 1:1 mixture of FBS-free regular media and CM of vehicle- or treated-MSCs. Images of wounded areas were taken immediately after adding the treatment using a phase contrast microscope, and baseline were marked under the cell culture dish with blue marker. After 12 h, images of same field were taken and % cell migration was calculated. Each condition was verified in triplicate and was repeated using independent cultures.

HREs [4] = assay: Tube formation assay (Matrigel); type: cell-based, human; conditions: 24 h of treatment with CM of modulated MSCs
Experimental: Corning Matrigel Matrix (10 mg protein/mL) Growth Factor Reduced (Corning Inc., Cat. No. 354230, Corning, NY, USA) was used for tube formation assay. Then, 289 μL of cold (4° C.) Matrigel per well was added into chilled 24-well flat-bottom tissue culture plate (USA Scientific Inc., Ocala, FL, USA) and polymerized for 1 h at 37° C., 5% CO2 incubator. HREs were trypsinized and separated into different groups. Each group of cells was centrifuged and cell pellets were resuspended in regular media without FBS, same media with 1:1 mixture of FBS free regular media and CM of vehicle- or treated-MSCs. Then 300 μL of the cell suspension was added onto each well of Matrigel coated 24-well culture plate and incubated at 37° C. After 24-h, cells forming tube structures were analyzed by microscopy. Cells in five replicate fields of triplicate wells were digitally photographed with an EVOS microscope (Thermo Fisher Scientific Inc., Waltham, MA, USA). The images for Tube formation assay were analyzed using Angiogenesis analyzer for imageJ. An area of 1.8 mm2 from each well was analyzed with imageJ ver. 1.53c, and 3 wells were analyzed per group. […] The total tubular length was calculated as the average of the total tubule length from three wells, five random fields per well.

[5] = cited from earlier work
[6] = normal young and elderly individuals; cited from earlier work
p75NTR = conditions: cultures of p75NTR−/− neurons; cited from earlier work
[7] = cited from earlier work; remark: listed apart in the source
HREs [8] = assay: RT-PCR gene expression in HREs treated with CM of p75NTR-modulated MSCs; type: cell-based, human
Experimental: as §1
All human retinal endothelial (HRE) cell studies were in accordance with Association for Research in Vision and Ophthalmology and Charlie Norwood Veterans Affairs Medical Center, research and ethics committee. HREs and supplies were purchased from Cell Systems Corporation (Kirkland, WA, USA) and VEC Technology Inc. (Rensselaer, NY, USA).
Retinas samples and MSCs lysates were processed using (mirVANA™ PARIS™ Kit, Ambion Inc., Austin, TX, USA) and RNA was purified and quantified as described by the manufacturer's instructions. A one-step quantitative RT-PCR kit (Invitrogen, Carlsbad, CA, USA) was used to amplify 10 ng retinal mRNA. Quantitative PCR was conducted using a StepOnePlus qPCR system (Applied BioSystems, Life Technologies, Waltham, MA, USA). For HREs, RNA isolation was performed using the TRIzol Reagent (Invitrogen, Waltham, MA, USA), according to the manufacturer's instructions. RNA concentration was quantified by spectrophotometry at 260 nm using Nanodrop 2000 (Thermo Fisher Scientific, Waltham, MA, USA). A total of 1 μg of RNA was reverse transcribed to prepare cDNA using the RNA to cDNA EcoDry premix (Takara Bio USA Inc., Mountain View, CA, USA). Real-time PCR was performed using the CFX96 PCR instrument with matched primers (See Table 1) and Universal SYBR Green Supermix (Bio-Rad, Hercules, CA, USA). The following PCR parameters were used: initial denaturation cycle at 95° C. for 3 min, followed by 40 amplification cycles at 95° C. for 10 s, 56° C. for 15 s, and 72° C. for 1 min. The results are presented as the fold change in relative gene expression quantified using the delta-delta CT method and normalized to internal controls (18 S, GAPDH) and expressed relative to controls.

[9] = HREs treated with CM of modulated MSCs vs controls
[10] = HREs treated with CM of modulated MSCs, fold change, delta-delta CT, relative to controls

area under the curve (AUC) of time to platform after 15 days (p75^NTR [1]; I/R, 50 mg/kg/day oral gavage every other day): normalized
UAER normalized to creatinine (p75^NTR [2]; control animals): did not alter baseline
blood glucose level (p75^NTR [2]; control or diabetic animals): did not alter
renal fibrotic markers (Fibronectin, alpha-SMA) (p75^NTR [2]; controls): did not alter base-line
glomeruli size (Trichome staining) (p75^NTR [2]; diabetic animals): preserved glomeruli size
kidney NGF levels, Western Blot (p75^NTR [2]; diabetic animals): restored
renal and urinary inflammation (kidney IL-6 and IL-1β mRNA, urine IL-1β by ELISA) (p75^NTR [2]; diabetic animals): significantly prevented the increase
renal fibrosis (Trichome staining) (p75^NTR [2]; diabetic animals): significantly improved fibrosis
p75^NTR expression in kidney sections (immunohistochemistry) (p75^NTR [2]; diabetic or control animals): did not alter
NGF in MSCs conditioned medium, increase (p75^NTR on MSCs): ~4 Fold
SDF-1α in MSCs conditioned medium, increase (p75^NTR on MSCs): ~14.9 Fold
VEGF-A in MSCs conditioned medium, increase (p75^NTR on MSCs): 1.6 Fold
Structure (SMILES): CCC(C)C(N)C(=O)NCCN1CCOCC1 (stereo not shown) [LM11A-31, 2-amino-3-methyl-pentanoic acid [2-morpholin-4-yl-ethyl]-amide]
time to reach the platform (visual-clue water maze) (p75^NTR [1]; I/R both eyes, 50 mg/kg/day oral gavage every other day from 48 h post I/R, 6, 9, 12, 15 days post I/R, 50 mg/kg/day): significantly ameliorated; also recorded: attenuated
Urinary albumin excretion rate (UAER) normalized to creatinine (p75^NTR [2]; diabetic animals): significantly improved; also recorded: increase
body weight (p75^NTR [2]; diabetic animals): preserved the weight
glomeruli areas (PAS staining) (p75^NTR [2]; diabetic animals): significantly preserved glomeruli areas back to normal glomeruli size
kidney TNF-α expression (inflammatory marker), Western Blot (p75^NTR [2]; diabetic animals): significantly prevented the increase; also recorded: significantly improved
kidney p-JNK (apoptotic marker), Western Blot (p75^NTR [2]; diabetic animals): significantly prevented the increase; also recorded: significantly improved
ratio of kidney weight to body weight (p75^NTR [2]; diabetic animals): significantly improved
renal TGF-beta expression (p75^NTR [2]; diabetic animals): significantly prevented the increase; also recorded: significantly improved
renal fibrotic markers (Fibronectin, alpha-SMA), Western Blot (p75^NTR [2]; diabetic animals): significantly prevented the increase; also recorded: significantly improved
ratio of kidney weight to body weight (p75^NTR [2]; treated controls): did not alter the baseline
HREs migration, increase (HREs [3]): 1.34 Fold
number of junction points, increase (HREs [4]): 1.5 Fold
tube length, increase (HREs [4]): 1.4 Fold
blood-brain barrier crossing ([5]; 50 mg/kg, oral administration): cross the blood-brain barrier
oral bioavailability ([5]; in vivo, po): orally bioavailable
phase I safety trial outcome [6]: successfully completed
specificity to p75NTR: protective activity (p75NTR): complete loss of its protective activity
water solubility [7]: water-soluble
Akt gene expression in HREs, increase (HREs [8]; [9]): ~2.7 Fold
Bax gene expression in HREs, increase (HREs [8]; [9]): ~1.9 Fold
Bcl-2 gene expression in HREs, increase (HREs [8]; [9]): ~2.5 Fold
VEGF-A gene expression in HREs, increase (HREs [8]; [9]): ~3.5 Fold
p53 gene expression in HREs, change (HREs [8]; [9]): no change
p53 relative gene expression in HREs (mean±SEM) (HREs [8]; HREs treated with CM of modulated MSCs, first value of the printed pair): 3.7±3.4
Akt relative gene expression in HREs (mean±SEM) (HREs [8]; [10]): 2.68±0.53
Bax relative gene expression in HREs (mean±SEM) (HREs [8]; [10]): 1.88±0.105
Bcl-2 relative gene expression in HREs (mean±SEM) (HREs [8]; [10]): 2.45±0.24
VEGF-A relative gene expression in HREs (mean±SEM) (HREs [8]; [10]): 3.58±0.58
